Test results taken from US20220363719A1, “Reverse Amide-Linked Melanocortin Receptor-Specific Cyclic Peptides” (Palatin Technologies, Inc., priority 2020, published 2022).
Where a SMILES comes first, the peptide text is derived from it. Bridges are numbered along the chain shown (N, C = ends). [ ]: non-standard residue; d: D form. The star is where a group is joined. ξ: configuration not given here. d1Nal = N[C@H](Cc1cccc2ccccc12)C(=O)O; Nle = CCCC[C@H](N)C(=O)O; Dab = NCC[C@H](N)C(=O)O; ξHyp = O=C(O)C1CC(O)CN1; Dap = NC[C@H](N)C(=O)O; Hexanoyl = CCCCCC(=O)*; Ava = NCCCCC(=O)O; Bn = c1ccc(C*)cc1; βAla = NCCC(=O)O

Tests used:
Assay type in all cases: cell-based
mMC1r [1] = biological target: T1, mMC1r (Mus musculus, UniProt Q01727); experiment: Alternative assay for agonist activity (intracellular cAMP), B16-F10 cells, native MC1r; design: B16-F10 (mouse) and HBL (human) cell lines that express native MC1 r; endogenous in cells; host or cells: B16-F10 mouse melanoma cells; settings: not CEREP; for EC50: cAMP HTRF; for Emax: reference NDP-α-MSH, read-out: Emax percent mMC1r (percent of the maximal response obtained with the positive control)
Method: (§1) Accumulation of intracellular cAMP was examined as a measure of the ability of the peptides to elicit a functional response in either HEK-293 cells that express recombinant MC3r or MC4r or B16-F10 (mouse) and HBL (human) cell lines that express native MC1 r. Confluent cells were detached from culture plates by incubation in enzyme-free cell dissociation buffer. Dispersed cells were suspended in Hank's Balanced Salt Solution containing 10 mM HEPES (pH 7.5), 1 mM MgCl2, 1 mM glutamine, 0.5% albumin and 0.3 mM 3-isobutyl-1-methyl-xanthine (IBMX), a phosphodiesterase inhibitor. The cells were dispensed into 96-well plates at a density of 0.5×10^5 cells per well and pre-incubated for 10 minutes. Cells were exposed for 15 minutes at 37° C. to peptides dissolved in DMSO (final DMSO concentration of 1%) at a concentration range of 0.05-5000 nM in a total assay volume of 200 μL. NDP-α-MSH was used as the reference agonist. cAMP levels were determined by an HTRF® cAMP cell-based assay system from Cisbio Bioassays utilizing cryptate-labeled anti-cAMP and D2-labeled cAMP, with plates read on a Perkin-Elmer Victor plate reader at […]. Data analysis was performed by nonlinear regression analysis with Graph-Pad Prism® software. The maximum efficacies of the test peptides were compared to that achieved by the reference melanocortin agonist NDP-α-MSH.

hMC5r [2] = biological target: T2, hMC5r (Homo sapiens, UniProt P33032); experiment: Agonist activity (EC50/Emax) at hMC5r, not determined by CEREP; settings: for Emax: read-out: Emax percent hMC5r (percent of the maximal response obtained with the positive control)
T2 construct: Eurofins CEREP SA

hMC5r [3] = biological target: T2, hMC5r; experiment: cAMP agonist activity assay performed at CEREP (HTRF), MC5; settings: determined by CEREP, CHO-K1 cells; for EC50: cAMP HTRF; for Emax: control Alpha-MSH, read-out: Emax percent hMC5r* (percent of the maximal response obtained with the positive control)
Method: (§2) Evaluation of the agonist activity of compounds at the melanocortin receptors was determined by measuring their effects on cAMP production using the HTRF detection method at CEREP (Eurofins CEREP SA, Celle-Lévescault, France). The cells were suspended in HBSS buffer (Invitrogen) complemented with 20 mM HEPES (pH 7.4) and 500 μM IBMX, then distributed in microplates and incubated in the presence of HBSS (basal control), the test compound or the reference agonist. Incubation time, temperature, cell number, reference agonist and cell line information are included in the Table 1 below. For stimulated control measurement, separate assay wells contain reference compound. Following incubation, the cells are lysed and the fluorescence acceptor (D2-labeled cAMP) and fluorescence donor (anti-cAMP antibody labeled with europium cryptate) were added. After 60 minutes at room temperature, the fluorescence transfer was measured at excitation wavelength 337 nm and emission wavelengths 620 and 665 nm using a microplate reader (Envision, Perkin Elmer). The cAMP concentration was determined by dividing the signal measured at 665 nm by that measured at 620 nm (ratio).
(§3) The results are expressed as a percent of the control response to 1 μM of the reference. The standard reference agonist is tested in each experiment at several concentrations to generate a concentration-response curve from which its EC50 value is calculated.

hMC4r [4] = biological target: T3, hMC4r (Homo sapiens, UniProt P32245); experiment: Alternative assay for agonist activity (intracellular cAMP), HEK-293 cells, recombinant MC4r; design: expressed in transfected cells; host or cells: HEK-293; settings: for Emax: HEK293, not CEREP, reference NDP-α-MSH, read-out: Emax percent hMC4r (percent of the maximal response obtained with the positive control); for EC50: not CEREP, cAMP HTRF
Method: as §1

hMC3r [5] = biological target: T4, hMC3r (Homo sapiens, UniProt P41968); experiment: Alternative assay for agonist activity (intracellular cAMP), HEK-293 cells, recombinant MC3r; design: expressed in transfected cells; host or cells: HEK-293; settings: for Emax: HEK293, not CEREP, reference NDP-α-MSH, read-out: Emax percent hMC3r (percent of the maximal response obtained with the positive control); for EC50: not CEREP, cAMP HTRF
Method: as §1

mMC1r [6] = biological target: T1, mMC1r; experiment: cAMP agonist activity assay performed at CEREP (HTRF), MC1; settings: determined by CEREP, B16-F1 cells; for EC50: cAMP HTRF; for Emax: control NDP-alpha-MSH, read-out: Emax percent mMC1r* (percent of the maximal response obtained with the positive control)
Method: as §2, §3

hMC3r [7] = biological target: T4, hMC3r; experiment: cAMP agonist activity assay performed at CEREP (HTRF), MC3; design: expressed in transfected cells; settings: determined by CEREP, CHO-K1 cells
Method: as §2
(§4) The results are expressed as a percent of the control response to 1 μM of the reference. […]

hMC4r [8] = biological target: T3, hMC4r; experiment: cAMP agonist activity assay performed at CEREP (HTRF), MC4; design: expressed in transfected cells; settings: determined by CEREP, CHO-K1 cells
Method: as §2, §4

hMC1r = biological target: T5, hMC1r (Homo sapiens, UniProt Q01726); experiment: Alternative assay for agonist activity (intracellular cAMP), HBL cells, native MC1r; settings: not CEREP; for EC50: cAMP HTRF; for Emax: reference NDP-α-MSH, read-out: Emax percent hMC1r (percent of the maximal response obtained with the positive control)
T5 construct: B16-F10 (mouse) and HBL (human) cell lines that express native MC1 r; endogenous in cells; host or cells: HBL human melanoma cells
Method: as §1

T5 sequence (Q01726 whole entry): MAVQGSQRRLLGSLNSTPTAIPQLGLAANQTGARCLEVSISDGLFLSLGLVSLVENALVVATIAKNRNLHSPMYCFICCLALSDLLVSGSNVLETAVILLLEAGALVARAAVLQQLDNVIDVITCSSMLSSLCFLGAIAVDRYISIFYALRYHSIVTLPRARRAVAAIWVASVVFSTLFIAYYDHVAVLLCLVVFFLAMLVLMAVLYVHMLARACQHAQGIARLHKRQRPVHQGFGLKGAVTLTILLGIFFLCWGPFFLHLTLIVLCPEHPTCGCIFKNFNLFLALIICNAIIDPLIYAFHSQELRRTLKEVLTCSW
T3 sequence (P32245 whole entry): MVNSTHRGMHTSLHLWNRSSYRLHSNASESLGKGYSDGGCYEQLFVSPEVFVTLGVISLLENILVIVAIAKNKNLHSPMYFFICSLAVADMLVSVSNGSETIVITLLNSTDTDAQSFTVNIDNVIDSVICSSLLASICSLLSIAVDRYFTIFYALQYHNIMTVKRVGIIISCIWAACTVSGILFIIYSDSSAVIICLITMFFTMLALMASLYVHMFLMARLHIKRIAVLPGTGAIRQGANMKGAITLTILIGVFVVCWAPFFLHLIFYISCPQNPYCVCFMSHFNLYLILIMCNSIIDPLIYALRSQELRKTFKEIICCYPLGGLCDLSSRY
T1 sequence (Q01727 whole entry): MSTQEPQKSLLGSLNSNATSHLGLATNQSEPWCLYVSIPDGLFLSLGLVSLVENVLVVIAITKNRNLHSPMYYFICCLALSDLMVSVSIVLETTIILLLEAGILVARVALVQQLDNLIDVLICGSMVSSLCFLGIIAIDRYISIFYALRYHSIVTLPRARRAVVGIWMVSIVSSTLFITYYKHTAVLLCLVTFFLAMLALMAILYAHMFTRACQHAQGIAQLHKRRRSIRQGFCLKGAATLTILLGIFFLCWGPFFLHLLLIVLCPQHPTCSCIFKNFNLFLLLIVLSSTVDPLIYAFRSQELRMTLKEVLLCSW
T4 sequence (P41968 whole entry): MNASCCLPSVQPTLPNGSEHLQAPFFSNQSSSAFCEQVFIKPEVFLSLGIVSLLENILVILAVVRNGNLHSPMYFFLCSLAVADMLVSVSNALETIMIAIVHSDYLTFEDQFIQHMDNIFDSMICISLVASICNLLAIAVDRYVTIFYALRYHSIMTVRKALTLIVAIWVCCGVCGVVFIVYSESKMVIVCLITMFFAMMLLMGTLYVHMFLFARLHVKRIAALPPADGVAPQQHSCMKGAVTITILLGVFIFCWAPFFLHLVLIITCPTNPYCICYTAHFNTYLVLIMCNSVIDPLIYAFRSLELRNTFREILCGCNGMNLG
T2 sequence (P33032 whole entry): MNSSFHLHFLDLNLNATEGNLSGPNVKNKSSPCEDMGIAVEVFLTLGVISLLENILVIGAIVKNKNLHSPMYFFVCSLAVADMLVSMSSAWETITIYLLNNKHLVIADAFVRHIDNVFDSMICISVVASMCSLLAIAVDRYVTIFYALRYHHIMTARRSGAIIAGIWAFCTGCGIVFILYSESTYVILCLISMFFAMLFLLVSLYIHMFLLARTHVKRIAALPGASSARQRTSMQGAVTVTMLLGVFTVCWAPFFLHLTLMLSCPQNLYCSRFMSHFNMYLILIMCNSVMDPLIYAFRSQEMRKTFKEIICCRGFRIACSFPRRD

| Compound | EC50 (mMC1r [1]) | Emax (mMC1r [1]) | EC50 (hMC5r [2]) | Emax (hMC5r [2]) | EC50 (hMC5r [3]) | Emax (hMC5r [3]) | Emax (hMC4r [4]) | EC50 (hMC4r [4]) | Emax (hMC3r [5]) | EC50 (hMC3r [5]) | EC50 (mMC1r [6]) | Emax (mMC1r [6]) | EC50 (hMC3r [7]; cAMP HTRF) | Emax (hMC3r [7]; control NDP-alpha-MSH, read-out: Emax percent hMC3r* (percent of the maximal response obtained with the positive control)) | EC50 (hMC4r [8]; cAMP HTRF) | Emax (hMC4r [8]; control NDP-alpha-MSH, read-out: Emax percent hMC4r* (percent of the maximal response obtained with the positive control)) | EC50 (hMC1r) | Emax (hMC1r) |
| --- | --- | --- | --- | --- | --- | --- | --- | --- | --- | --- | --- | --- | --- | --- | --- | --- | --- | --- |
| CCCC[C@H](NC(C)=O)C(=O)N[C@H]1CNC(=O)CCNC(=O)[C@H](Cc2c[nH]c3ccccc23)NC(=O)[C@H](CCCNC(=N)N)NC(=O)[C@@H](Cc2cccc3ccccc23)NC(=O)C2CC(OCc3ccccc3)CN2C1=O (some centres unmarked) [Peptide 7] (Ac-[Nle][Dap][ξHyp](Bn)[d1Nal]RW[βAla]; lactam 2-C) | 17 nM | 74% | 1 nM | 71% | 2 nM | 97% | 26% | 5 nM | 7% | > 10000 nM | – | – | – | – | – | – | – | – |
| CC(=O)N[C@@H](CCCNC(=N)N)C(=O)N[C@H]1CCNC(=O)CCCCNC(=O)[C@H](Cc2c[nH]c3ccccc23)NC(=O)[C@H](CCCNC(=N)N)NC(=O)[C@@H](Cc2ccccc2)NC(=O)[C@H](CC(N)=O)NC1=O [Peptide 10] (Ac-R[Dab]N[dF]RW[Ava]; lactam 2-C) | 113 nM | 94% | 207 nM | 54% | 1600 nM | 71% | 111% | 0.9 nM | 63% | 6 nM | – | – | – | – | – | – | – | – |
| CCCC[C@H](NC(C)=O)C(=O)N[C@H]1CCCCNC(=O)CNC(=O)[C@H](Cc2c[nH]c3ccccc23)NC(=O)[C@H](CCCNC(=N)N)NC(=O)[C@@H](Cc2cccc3ccccc23)NC(=O)C2CC(OCc3ccccc3)CN2C1=O (some centres unmarked) [Peptide 1] (Ac-[Nle]K[ξHyp](Bn)[d1Nal]RWG; lactam 2-C) | 3 nM | 58% | – | – | 0.22 nM | 110% | 39% | 0.5 nM | 12% | > 10000 nM | 260 nM | 65% | > 10000 nM | 9% | 0.82 nM | 50% | – | – |
| CC(=O)N[C@@H](CCCNC(=N)N)C(=O)N[C@H]1CCNC(=O)CCCCNC(=O)[C@H](Cc2c[nH]c3ccccc23)NC(=O)[C@H](CCCNC(=N)N)NC(=O)[C@@H](Cc2ccc(F)cc2)NC(=O)[C@H](Cc2c[nH]cn2)NC1=O [Peptide 16] | – | – | 2 nM | 58% | 0.71 nM | 60% | 102% | 0.9 nM | – | – | 0.01 nM | 108% | – | – | – | – | 0.6 nM | 106% |
| CCCCCC(=O)N[C@H]1CNC(=O)CCCCNC(=O)[C@H](CCCNC(=N)N)NC(=O)[C@@H](Cc2ccccc2)NC(=O)[C@H](Cc2c[nH]cn2)NC1=O [Peptide 19] (Hexanoyl-[Dap]H[dF]R[Ava]; lactam 1-C) | 350 nM | 80% | – | – | > 10000 nM | 5% | 70% | 4300 nM | 0.5% | > 10000 nM | 2600 nM | 74% | – | – | – | – | 3 nM | 92% |
| CCCCCC(=O)N[C@H]1CNC(O)CCNC(=O)[C@H](CCCNC(=N)N)NC(=O)[C@@H](Cc2ccccc2)NC(=O)[C@H](Cc2c[nH]cn2)NC1=O (some centres unmarked) [Peptide 18] | 90 nM | 99% | – | – | > 10000 nM | 3% | 68% | 2100 nM | 16% | 7680 nM | 180 nM | 90% | – | – | – | – | 5 nM | 89% |
